Test results: BindingDB's records for doi:10.1021/bi002865v (Pharmacia, 2001)
Where a SMILES comes first, the peptide text is derived from it. [ ]: non-standard residue; d: D form. sY = N[C@@H](Cc1ccc(OS(=O)(=O)O)cc1)C(=O)O; Nle = CCCC[C@H](N)C(=O)O

molecular target: T1, Tyrosine-protein phosphatase non-receptor type 1 (Rattus norvegicus, UniProt P20417); experiment: PTP1B Inhibition Assay; conditions: pH 7.2; 22 °C
T1 sequence (P20417 whole entry): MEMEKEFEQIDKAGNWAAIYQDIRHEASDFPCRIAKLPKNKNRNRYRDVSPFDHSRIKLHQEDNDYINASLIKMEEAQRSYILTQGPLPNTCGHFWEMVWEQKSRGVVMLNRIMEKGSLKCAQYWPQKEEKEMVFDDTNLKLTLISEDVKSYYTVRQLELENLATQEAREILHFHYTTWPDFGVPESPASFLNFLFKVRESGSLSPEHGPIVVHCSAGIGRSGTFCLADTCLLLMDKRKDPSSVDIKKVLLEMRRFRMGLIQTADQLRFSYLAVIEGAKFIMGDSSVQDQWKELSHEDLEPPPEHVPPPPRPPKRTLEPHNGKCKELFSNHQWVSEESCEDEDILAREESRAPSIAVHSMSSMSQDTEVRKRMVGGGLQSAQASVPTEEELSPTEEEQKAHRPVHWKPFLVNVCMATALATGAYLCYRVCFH
Description: Hydrolysis of substrate p-nitrophenyl phosphate was monitored on a 96-well microplate reader. Concentrations of PTP1B inhibitors that resulted in 50% reduction of enzyme activity (IC50) were derived by fitting reaction rates obtained in the presence and absence of compounds.

| Structure (SMILES) | Ki [µM] |
| --- | --- |
| CCCCCNC(=O)[C@H](Cc1ccc(OC(C(=O)O)C(=O)O)cc1)NC(=O)CCC(=O)O [2-{4-[(2S)-2-(3-formamidopropanoic acid)-2-(pentylcarbamoyl)ethyl]phenoxy}propanedioic acid] | 12 |
| CCCC[C@H](NC(=O)[C@H](Cc1ccc(OS(=O)(=O)O)cc1)NC(=O)[C@H](CC(=O)O)NC(C)=O)C(N)=O (Ac-Asp-[sY]-[Nle]-NH2) | 5 |
| CCCCCNC(=O)[C@H](Cc1ccc(OS(=O)(=O)O)cc1)NC(=O)CCC(=O)O [Compound II] | 30 |
| CCCCCNC(=O)[C@H](Cc1ccc(OCC(=O)OC)c(C(=O)OC)c1)NC(=O)[C@H](Cc1ccccc1)NC(=O)CCC(=O)OC [methyl 2-(2-methoxy-2-oxoethoxy)-5-[(2S)-2-[(2S)-2-(methyl 3-formamidopropanoate)-3-phenylpropanamido]-2-(pentylcarbamoyl)ethyl]benzoate] | > 100 |
| CCCCCNC(=O)[C@H](Cc1ccc(OCC(=O)O)c(C(=O)O)c1)NC(=O)[C@H](Cc1ccccc1)NC(=O)Cn1[nH]ncc1=S [2-(carboxymethoxy)-5-[(2S)-2-(pentylcarbamoyl)-2-[(2S)-3-phenyl-2-[1-(5-sulfanyl-1H-1,2,3-triazol-1-yl)acetamido]propanamido]ethyl]benzoic acid] | 0.12 |
| CCCCCNC(=O)[C@H](Cc1ccc(OC(C(=O)O)C(=O)O)cc1)NC(=O)[C@H](Cc1ccccc1)NC(=O)CCC(=O)O [2-{4-[(2S)-2-[(2S)-2-(3-formamidopropanoic acid)-3-phenylpropanamido]-2-(pentylcarbamoyl)ethyl]phenoxy}propanedioic acid] | 1.2 |
| CCCCCNC(=O)[C@H](Cc1ccc(OCC(=O)O)c(C(=O)O)c1)NC(=O)CCC(=O)O [2-(carboxymethoxy)-5-[(2S)-2-(3-formamidopropanoic acid)-2-(pentylcarbamoyl)ethyl]benzoic acid] | 2.8 |
